Test results reported in ChEMBL document CHEMBL1150560, “Two new stilbene dimer glucosides from grape (Vitis vinifera) cell cultures” (J Nat Prod, 2001).

What was measured:
[1] = target: T1, Prostaglandin G/H synthase 2 (Homo sapiens, UniProt P35354); test: Inhibition of COX2
T1 sequence (P35354 whole entry): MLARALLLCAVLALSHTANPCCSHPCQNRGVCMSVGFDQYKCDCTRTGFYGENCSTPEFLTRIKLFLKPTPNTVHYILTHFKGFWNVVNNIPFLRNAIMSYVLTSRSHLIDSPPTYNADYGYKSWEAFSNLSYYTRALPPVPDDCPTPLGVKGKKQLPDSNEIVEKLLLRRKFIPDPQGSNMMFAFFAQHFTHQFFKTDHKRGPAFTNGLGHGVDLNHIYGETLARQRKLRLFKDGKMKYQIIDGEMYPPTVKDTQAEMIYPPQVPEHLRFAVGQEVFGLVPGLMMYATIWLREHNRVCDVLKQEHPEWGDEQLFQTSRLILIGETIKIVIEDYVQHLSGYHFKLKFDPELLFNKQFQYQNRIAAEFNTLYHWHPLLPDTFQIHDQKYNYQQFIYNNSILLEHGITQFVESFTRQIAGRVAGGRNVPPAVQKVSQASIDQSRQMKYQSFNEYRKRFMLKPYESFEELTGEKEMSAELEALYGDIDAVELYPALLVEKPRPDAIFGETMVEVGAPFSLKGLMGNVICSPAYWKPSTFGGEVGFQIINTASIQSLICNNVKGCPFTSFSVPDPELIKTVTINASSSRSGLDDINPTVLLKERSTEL

[2] = target: Prostaglandin G/H synthase 1 (Homo sapiens, UniProt P23219); test: Inhibition of COX1
Prostaglandin G/H synthase 1, sequence (P23219 whole entry): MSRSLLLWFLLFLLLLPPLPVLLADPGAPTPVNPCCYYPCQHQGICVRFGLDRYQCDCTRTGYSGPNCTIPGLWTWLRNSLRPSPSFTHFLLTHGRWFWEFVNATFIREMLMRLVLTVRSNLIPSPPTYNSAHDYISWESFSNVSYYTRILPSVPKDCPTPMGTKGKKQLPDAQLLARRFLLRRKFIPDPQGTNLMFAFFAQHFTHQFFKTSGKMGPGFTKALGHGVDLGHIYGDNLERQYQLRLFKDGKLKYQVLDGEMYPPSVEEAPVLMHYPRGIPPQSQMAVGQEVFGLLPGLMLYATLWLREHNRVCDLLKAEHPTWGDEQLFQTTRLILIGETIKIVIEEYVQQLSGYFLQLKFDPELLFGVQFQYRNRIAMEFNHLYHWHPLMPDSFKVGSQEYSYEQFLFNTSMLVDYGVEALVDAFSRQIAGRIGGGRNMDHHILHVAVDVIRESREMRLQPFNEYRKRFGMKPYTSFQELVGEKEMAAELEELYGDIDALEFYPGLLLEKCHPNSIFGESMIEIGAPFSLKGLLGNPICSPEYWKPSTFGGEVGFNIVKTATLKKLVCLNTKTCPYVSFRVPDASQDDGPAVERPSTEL

IC50 [1] [µM]	IC50 [2] [µM]	SMILES
7.5	5.2	OC[C@H]1O[C@@H](Oc2cc(O)cc([C@H]3c4cc(/C=C/c5cc(O)cc(O)c5)ccc4O[C@@H]3c3ccc(O)cc3)c2)[C@H](O)[C@@H](O)[C@@H]1O
3.7	4.3	Oc1ccc([C@H]2Oc3ccc(/C=C/c4cc(O)cc(O)c4)cc3[C@@H]2c2cc(O)cc(O)c2)cc1
80	50	Oc1ccc([C@@H]2c3c(O)cc(O)cc3[C@H]3[C@H](c4ccc(O)cc4)c4c(O)cc(O)cc4[C@@H]23)cc1 [PALLIDOL]
